Consider 17 molecules from patent US6566355B1 (Hoffmann-La Roche Inc., priority 1991, dated 2003).

One assay deals with T1, β-lactamase (Citrobacter freundii, UniProt P05193).
T1 construct: Various β-lactamases can be isolated from penicillin- or cephalosporin-resistant bacterial strains such as; endogenous in cells; host or cells: Citrobacter freundii 1203 (enzyme purified from the crude cell extract, after ampicillin induction when necessary)
Description: biochemical. The gist of the method:
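β-lactamase from C. freundii 1203 crude extract (French press, 20 mM Tris-HCl pH 7.0) assayed with 0.1 mM nitrocefin in 50 mM phosphate pH 7.0 at 37° C, enzyme set to ΔA/min about 0.1, read at 482 nm. IC50 is inhibitor concentration giving 50% inhibition of nitrocefin cleavage, determined graphically.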

Another assay deals with Citrobacter freundii. Description: MIC in vitro of a 1:4 combination of ceftriaxone with a compound of formula I (test D). It counts as cell-based. The following applies: 1:4 combination of ceftriaxone with the compound. The method, then:
D. Determination of the β-lactamase-inhibiting activity by combination of a compound of general formula I with ceftriaxone
The minimum inhibitory concentration in vitro (MIC in μg/ml) of a 1:4 combination of ceftriaxone with a compound of formula I against Citrobacter freundii is measured and compiled in Table 2 hereinafter.

The mark [1] stands for this setting: IC 50 nM, isolated β-lactamase of Citrobacter freundii, substrate nitrocefin 0.1 mM, 15 minutes pre-incubation with inhibitor, 37° C., pH 7.0.
Where [2] appears, read: isolated β-lactamase of Citrobacter freundii, substrate nitrocefin 0.1 mM, 15 minutes pre-incubation with inhibitor, 37° C., pH 7.0, read-out: IC 50 nM.

Where a name gives a salt, the structure may show the parent alone. Read-outs that look alike come from different tables or passages of the source.

T1 sequence (P05193 21-381): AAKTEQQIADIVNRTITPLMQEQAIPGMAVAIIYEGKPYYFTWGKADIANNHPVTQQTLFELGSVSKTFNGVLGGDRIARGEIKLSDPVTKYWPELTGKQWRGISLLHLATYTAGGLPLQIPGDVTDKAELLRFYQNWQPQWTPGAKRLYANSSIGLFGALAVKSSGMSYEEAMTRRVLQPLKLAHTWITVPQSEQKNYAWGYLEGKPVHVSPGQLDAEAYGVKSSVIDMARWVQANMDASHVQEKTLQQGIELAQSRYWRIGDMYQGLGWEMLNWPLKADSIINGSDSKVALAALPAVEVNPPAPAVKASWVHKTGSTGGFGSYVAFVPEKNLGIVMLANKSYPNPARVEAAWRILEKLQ

On to `CC(C)=C[C@@H]1[C@@H](C(=O)N2CC[C@@H]3[C@H]2C(=O)N3S(=O)(=O)[O-])C1(C)C.[Na+]` [23(h), (1S,5R)-2-[(1R,3R)-2,2-Dimethyl-3-(2-methyl-propenyl)-cyclopropylcarbonyl]7-oxo-2,6-diazabicyclo[3.2.0]heptane-6-sulfonic acid sodium salt], for which, at β-lactamase (setting [1]), the IC50 amounted to 920 nM. In the assay with Citrobacter freundii, the MIC – broadly, the lowest concentration found to suppress growth – was 16 µg/mL.
`O=C(Nc1nnc(SCC(=O)N2CC[C@@H]3[C@H]2C(=O)N3S(=O)(=O)[O-])s1)OCc1ccccc1.[Na+]` [23(i), (1S,5R)-2-(5-Benzyloxycarbonylamino-1,3,4-thiadiazol-2-ylsulfanyl-acetyl)-7-oxo-2,6-diazabicyclo[3.2.0]heptane-6-sulfonic acid sodium salt] came in with an IC50 on β-lactamase (setting [1]) of 70 nM. In the assay on Citrobacter freundii, the “MIC” value came out at 1 µg/mL.
In turn, `O=C(C=Cc1cncn1S(=O)(=O)[O-])N1CC[C@@H]2[C@H]1C(=O)N2S(=O)(=O)[O-].[Na+].[Na+]` [23(l), (1S,5R)-7-Oxo-2-[3-(1-sulfo-imidazol-5-yl)acryloyl]-2,6-diazabicyclo[3.2.0]heptane-6-sulfonic acid sodium salt] showed an IC50 against β-lactamase (setting [1]) of 5 nM. The “MIC” value with Citrobacter freundii is 2 µg/mL.
`O=C(OCc1ccccc1)N1CC[C@@H]2[C@H]1C(=O)N2S(=O)(=O)O` [Example 1(a), Benzyl (1S,5)-7-oxo-6-sulpho-2,6-diazabicyclo[3.2.0]heptane 2-carboxylate sodium salt] returned an IC50 against β-lactamase of 100 nM. Further, in the assay with Citrobacter freundii, the “MIC” value amounted to 8 µg/mL.
As for `O=C(Nc1ccccc1)N1CC[C@@H]2[C@H]1C(=O)N2S(=O)(=O)[O-].[Na+]` [Example 2, (1S,5R)-7-Oxo-2-(phenylcarbamoyl)-2,6-diazabicyclo[3.2.0]heptane-6-sulphonic acid sodium salt], the IC50 at β-lactamase (setting [1]) worked out at 220 nM. Also, in the assay on Citrobacter freundii, the “MIC” value came out at 2 µg/mL.
`O=C(NCc1ccccc1)N1CC[C@@H]2[C@H]1C(=O)N2S(=O)(=O)O` [Example 3, (1S,5R)-2-(Benzylcarbamoyl)-7-oxo-2,6-diazabicyclo[3.2.0]heptane-6-sulphonic acid sodium salt] gave an IC50 against β-lactamase (setting [1]) of 330 nM. Further, the “MIC” value in the assay on Citrobacter freundii worked out at 2 µg/mL.
The molecule `O=C(/C=C/c1ccco1)N1CC[C@@H]2[C@H]1C(=O)N2S(=O)(=O)O` [Example 5(a), (1S,5R)-2-[(E)-3-(2-Furyl)acryloyl-7-oxo-2,6-diazabicyclo[3.20]heptane-6-sulphonic acid sodium salt] yielded an IC50 on β-lactamase of 85 nM. In addition, the “MIC” value in the assay with Citrobacter freundii stood at 4 µg/mL.
Regarding `N[C@@H](Cc1ccc(O)cc1)C(=O)N1CC[C@@H]2[C@H]1C(=O)N2S(=O)(=O)O` [Example 6(b), (1S,5R)-7-Oxo-2-L-tyrosyl-2,6-diazabicyclo[3.2.0]heptane-6-sulphonic acid], at β-lactamase, the IC50 amounted to 310 nM. For the same molecule, in the assay on Citrobacter freundii, the “MIC” value turned out to be 4 µg/mL.
For `COC1=C(C(=O)O)N2C(=O)C3C2C(C1)CN3C(=O)OC(C)(C)C` [Example 7, (1aS,3aR,6bR)-1,1a,3a,6b-Tetrahydro-5-methoxy-1-oxo-2,6a-diazacyclobuta[cd]indene-2,6(3H,4H)-dicarboxylic acid 2-t-butyl monoester], the IC50 on β-lactamase (setting [2]) turned out to be 505 nM. Moreover, in the assay with Citrobacter freundii, the “MIC” value is 4 µg/mL.
As for `CC(=O)Oc1ccc(/C=C/C(=O)N2CC[C@@H]3[C@H]2C(=O)N3S(=O)(=O)[O-])cc1OC(C)=O.[Na+]` [Example 13, 4-[(E)-2-[[(1S,5R)-7-Oxo-6-sulpho-2,6-diazabicyclo[3.2.0]heptan-2-yl]carbonyl]vinyl]-o-phenylene diacetate sodium salt], at β-lactamase (setting [1]), the IC50 worked out at 63 nM. In addition, in the assay with Citrobacter freundii, the “MIC” value stood at 4 µg/mL.
Consider `O=C(NCc1ccco1)N1CC[C@@H]2[C@H]1C(=O)N2S(=O)(=O)O` [Example 17(a), (1S,5R)-2-(2-Furan-2-yl-methylcarbamoyl)-7-oxo-2,6-diazabicyclo[3.2.0]heptane-6-sulphonic acid sodium salt], for which the IC50 on β-lactamase is 156 nM. In addition, the “MIC” value with Citrobacter freundii amounted to 2 µg/mL.
As to `O=C(CCC(=O)N1CC[C@@H]2[C@H]1C(=O)N2S(=O)(=O)O)NOCc1ccco1` [Example 19, sodium salt], the IC50 at β-lactamase (setting [1]) came out at 430 nM. The “MIC” value with Citrobacter freundii amounted to 2 µg/mL.
Consider `O=C(CS(=O)(=O)c1ccc(O)c(O)c1)N1CC[C@@H]2[C@H]1C(=O)N2S(=O)(=O)O` [Example 20, (1S,5R)-2-[[(3,4-Dihydroxyphenyl)sulphonyl]acetyl]-7-oxo-2,6-diazabicyclo[3.2.0]heptane-6-sulphonic acid sodium salt], for which the IC50 on β-lactamase (setting [1]) came to 165 nM. For the same molecule, the “MIC” value in the assay with Citrobacter freundii is 4 µg/mL.
With `N[C@@H](C(=O)N1CC[C@@H]2[C@H]1C(=O)N2S(=O)(=O)O)c1ccc(O)c(O)c1.[Na]` [Example 21, (1S,5R)-2-[(R,S)-Amino-(3,4-dihydroxyphenyl)acetyl]-7-oxo-2,6-diazabicyclo[3.2.0]heptane-6-sulphonic acid sodium salt], the IC50 on β-lactamase (setting [2]) was determined as 695 nM. Further, the “MIC” value in the assay with Citrobacter freundii was 4 µg/mL.
Taken in the same sequence, the figures for “(1S,5R)-2-[(2-Amino-4-thiazolyl)acetyl]-7-oxo-2,6-diazabicyclo[3.2.0]heptane-6-sulphonic acid triethylamine salt [6(o)]” were 350 nM and 2 µg/mL.
Taken in the same sequence, the figures for “Mixture of (1S,5R)-2-(5-Amino-1H-tetrazol-1-ylacetyl) and (1S,5R)-2-(5-Amino-2H-tetrazol-2-ylacetyl)-7-oxo-2,6-diazabicyclo[3.2.0]heptane-6-sulfonic acid sodium salt (1:2) [23(k)]” were 273 nM and 2 µg/mL.
For “Mixture of (1S,5R)-2-[(E)-3-(1-Methyl-3- and -4- or -3- and -5- or -4- and -5-sulfo-pyrrol-2-yl)acryloyl]-7-oxo-2,6-diazabicyclo[3.2.0]heptane-6-sulfonic acid sodium salt (1:2) [23(j)]” the same measures were 38 nM and 1 µg/mL.
